14 molecules from patent US20220095617A1, “PLANT GROWTH REGULATING AGENT” (IDEMITSU KOSAN CO.,LTD., priority 2019, published 2022) can be followed below.

The test system of test [1] is lettuce (Green Wave). The test is described as follows: Example 1: High-temperature stress Petri dish test (lettuce), comparison with other natural products. In kind it is in vivo. The following applies: 0.1 ppm in agar medium.
In test [2] the test system is lettuce (Green Wave). Nature of the test: Example 4: High-temperature stress Petri dish test (lettuce), comparison with flavonoids. The class given is in vivo. To be noted: 0.1 ppm.
Test [3] relates to lettuce (Green Wave). The test is described as follows: Example 2: High-temperature stress Petri dish test (lettuce), blending with neohesperidin.
Protocol: For seeds, 2% water agar medium (using water as the solvent), which was prepared such that hesperidin (Fujifilm Wako Pure Chemical Corporation; special-grade reagent) and neohesperidin (Fujifilm Wako Pure Chemical Corporation; special-grade reagent) were contained at the predetermined final concentrations shown in Table 2, was filled into square Petri dishes (“model number: D-210-16”, manufactured by As One Corporation). Before high-temperature treatment, lettuce (Green Wave, Takii & Co., Ltd.) was sown on 2% water agar medium, and lettuce seedlings on day 2 after the sowing were transplanted to the above-described agar medium to which the hesperidin and/or the like was/were added. At the time of the transplantation, the tip of the root was marked. Each Petri dish after the transplantation was placed in an incubator (“model number: FLI-2010A”, manufactured by EYELA) at an angle of 45° with respect to the bottom surface, and high-temperature treatment was carried out at 42° C. for 1.5 hours. Thereafter, culture was similarly performed at 23° C. for 2 days, and then the increase in the root length was evaluated in terms of elongation from the tip of the root of each seedling at the time of the transplantation. In addition, for evaluation of the effect of the mixture of hesperidin and neohesperidin in normal cultivation, culture was similarly performed at 23° C. without performing the high-temperature treatment, followed by evaluation of the increase in the root length. […] The Colby's equation is as follows.
E=(x+y)−(x·y)/100 Colby's equation:
E: Expected root length x: Root length in the case of application of hesperidin alone y: Root length in the case of application of neohesperidin alone For each group, 15 measurement results were obtained (N=15).
The test system of test [4] is Rice (Koshihikari) seeds. Nature of the test: Example 5: High-temperature stress Petri dish test (rice seeds). In kind it is in vivo. The following applies: for Germination rate, Increase rate: non-addition group = 100.0; for Germination rate, Average: seeds 65° C. hot water 10 minutes, 28° C. 5 days. On the procedure: Rice (Koshihikari) seeds were soaked in hot water at 65° C. for 10 minutes to perform high-temperature treatment. […] A group similarly soaked in distilled water was provided as a non-addition group. After the soaking treatment, the seeds were dried in air, and then 20 seeds were sown on each of shallow Petri dishes in which qualitative filter paper was placed. To the filter paper in each Petri dish, 5 mL of distilled water was uniformly added dropwise. […] For each group, three measurement results were obtained (N=3).

For test [5], the system named is lettuce (Green Wave). The test is described as follows: Example 3: High-temperature stress Petri dish test (lettuce), blending with β-carotene. The class given is in vivo. The following applies: 0.1 ppm.
Setting [6] is: High-temperature treatment (42° C., 1.5 hours), then 23° C. 2 days.
[7] abbreviates: High-temperature treatment (42° C., 1.5 hours).

`CC1=C(/C=C/C(C)=C/C=C/C(C)=C/C=C/C=C(C)/C=C/C=C(C)/C=C/C2=C(C)C(=O)[C@@H](O)CC2(C)C)C(C)(C)C[C@H](O)C1=O` [Astaxanthin, reference compound]: the values for the Root length in test [1] (setting [6]) and in test [1] (Normal cultivation) were 11.1 mm and 20.0 mm, respectively.
For `CC1=C(/C=C/C(C)=C/C=C/C(C)=C/C=C/C=C(C)/C=C/C=C(C)/C=C/C(=O)[C@]2(C)C[C@@H](O)CC2(C)C)C(C)(C)C[C@H](O)C1` [Capsanthin, reference compound], the Root length in test [1] (setting [6]) amounted to 10.7 mm; in test [1] (Normal cultivation) it was 20.4 mm.
In the case of `O=c1c(-c2ccc(O)cc2)coc2cc(O)ccc12` [Daidzein], the Root length in test [2] (setting [7]) was found to be 7.5 mm; in test [2] (Normal cultivation) it was 26.6 mm.
For `O=c1c(-c2ccc(O)cc2)coc2cc(O)cc(O)c12` [Genistein], in that order: 7.4 mm and 25.8 mm.
For the molecule `COc1ccc([C@@H]2CC(=O)c3c(O)cc(O)cc3O2)cc1O` [Hesperetin, hesperetin], the Root length stood at 18.0 mm in test [1] (setting [6]) and 23.5 mm in test [1] (Normal cultivation).
For the molecule `O=C1C[C@@H](c2ccc(O)cc2)Oc2cc(O)cc(O)c21` [Naringenin], the results for the Root length in test [2] (setting [7]) and in test [2] (Normal cultivation) were 8.4 mm and 22.1 mm, respectively.
On to `COc1ccc(CCC(=O)c2c(O)cc(O[C@@H]3O[C@H](CO)[C@@H](O)[C@H](O)[C@H]3O[C@@H]3O[C@@H](C)[C@H](O)[C@@H](O)[C@H]3O)cc2O)cc1O` [Neohesperidin dihydrochalcone, neohesperidin dihydrochalcone], for which the values for the Root length in test [1] (setting [6]) and in test [1] (Normal cultivation) were 15.3 mm and 23.4 mm, respectively.
Take `COc1ccc([C@@H]2CC(=O)c3c(O)cc(O[C@@H]4O[C@H](CO)[C@@H](O)[C@H](O)[C@H]4O[C@@H]4O[C@@H](C)[C@H](O)[C@@H](O)[C@H]4O)cc3O2)cc1O` [Neohesperidin]: the Root length in test [3] (High-temperature treatment (42° C., 1.5 hours), 0.03 ppm) was determined as 4.9 mm; in test [3] (High-temperature treatment (42° C., 1.5 hours), 0.1 ppm) it was 6.4 mm; in test [3] (Normal cultivation, 0.03 ppm), 17.6 mm; in test [3] (Normal cultivation, 0.1 ppm), 18.1 mm; in test [1] (setting [6]) it was 21.5 mm; in test [1] (Normal cultivation), 26.5 mm.
For `COc1ccc(-c2cc(=O)c3c(OC)c(OC)c(OC)c(OC)c3o2)cc1OC` [Nobiletin, nobiletin], the values for the Root length in test [1] (setting [6]) and in test [1] (Normal cultivation) were 14.1 mm and 23.1 mm, respectively.
On the same counts, the results for `O=C(CCc1ccc(O)cc1)c1c(O)cc(O)cc1O` [Phloretin, phloretin] are 14.8 mm and 21.9 mm.
`COc1ccc(-c2cc(=O)c3c(OC)c(OC)c(OC)c(OC)c3o2)cc1` [Tangeretin, tangeretin]: the Root length in test [1] (setting [6]) stood at 18.1 mm; in test [1] (Normal cultivation) it was 23.5 mm.
In the case of `COc1ccc([C@@H]2CC(=O)c3c(O)cc(O[C@@H]4O[C@H](CO[C@@H]5O[C@@H](C)[C@H](O)[C@@H](O)[C@H]5O)[C@@H](O[C@H]5O[C@H](CO)[C@@H](O)[C@H](O)[C@H]5O)[C@H](O)[C@H]4O)cc3O2)cc1O` [α-Monoglucosyl hesperidin, α-monoglucosyl hesperidin], the Root length amounted to 18.7 mm in test [1] (setting [6]) and 23.7 mm in test [1] (Normal cultivation).
As for `CC1=C(/C=C/C(C)=C/C=C/C(C)=C/C=C/C=C(C)/C=C/C=C(C)/C=C/C2=C(C)CCCC2(C)C)C(C)(C)CCC1` [β-Carotene, reference compound], the Root length in test [1] (setting [6]) is recorded as 11.2 mm; in test [1] (Normal cultivation), 22.3 mm; in test [5] (setting [7]), 7.5 mm; in test [5] (Normal cultivation) it was 23.8 mm. For the same molecule, the “Germination rate, Increase rate” value in test [4] (1 ppm) came out at 118.9%; in test [4] (10 ppm), 134.0%; in test [4] (100 ppm), 103.7%. Also, the “Germination rate, Average” value is on record as 69.9% in test [4] (then soaked 1 hour at 1 ppm), 78.8% in test [4] (then soaked 1 hour at 10 ppm) and 61.0% in test [4] (then soaked 1 hour at 100 ppm).
In the case of hesperidin methylchalcone, the Root length turned out to be 16.7 mm in test [1] (setting [6]) and 22.8 mm in test [1] (Normal cultivation).
